According to patent publication US10626140B2, “Prodrugs of 17β-HSD1-inhibitors” (FORENDO PHARMA LTD, priority 2014, dated 2020):
Entries after “also recorded” stand apart in the source; their conditions may differ. Where two headings read alike, the source gives them in different places.

Legend:
[1] = Metabolic stability assay; assay type: in vitro ADME; details: human liver homogenate or microsomes
Protocol: The in vitro metabolic stability of the parent compounds was determined for exemplified compounds using human liver microsome and homogenate incubations. The incubation time points used with or without appropriate cofactors were 0 min and 60 min. Samples were collected at both time points and substrates were detected using LC/PDA/TOF-MS. In vitro metabolic stability (% remaining after 60 min in human liver homogenate or microsomes) of the compounds were calculated and the results are summarized in Table 4.

[2] = target: T1, recombinant human 17β-HSD1 (Homo sapiens, UniProt P14061); test: Inhibition of recombinant human 17β-HSD1; assay type: biochemical; details: inhibitor 1 μM; 30 nM estrone, 1 mM NADPH, 30 min at RT; read-out: 17β-HDS1 Inhibition % at 1 μM
T1 construct: made in house; host or cells: Sd9 (Sf9) insect cells, baculovirus (Bac to Bac Expression System)
T1 sequence (P14061 1-328): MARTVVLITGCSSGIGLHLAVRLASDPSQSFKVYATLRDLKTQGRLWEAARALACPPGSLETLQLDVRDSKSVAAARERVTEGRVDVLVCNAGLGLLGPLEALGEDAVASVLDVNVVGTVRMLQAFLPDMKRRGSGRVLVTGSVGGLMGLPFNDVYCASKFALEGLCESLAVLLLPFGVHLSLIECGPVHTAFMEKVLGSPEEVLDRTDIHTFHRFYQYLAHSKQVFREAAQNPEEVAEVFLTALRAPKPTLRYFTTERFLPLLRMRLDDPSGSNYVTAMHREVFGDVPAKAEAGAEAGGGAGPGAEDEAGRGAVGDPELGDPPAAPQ
Protocol: 17β-HSD1 Production and Isolation:
Recombinant baculovirus was generated by the “Bac to Bac Expression System” (Invitrogen). Recombinant bacmid was transfected to Sd9 insect cells using “Cellfectin Reagent” (Invitrogen). 60 h later cells were harvested; the microsomal fraction was isolated as described by Puranen, T. J., Poutanen, M. H., Peltoketo, H. E., Vihko, P. T. and Vihko, R. K. (1994) Site-directed mutagenesis of the putative active site of human 17β-hydroxysteroid dehydrogenase type 1. Biochem. J. 304: 289-293. Aliquots were stored frozen until determination of enzymatic activity.
Assay—Inhibition of Recombinant Human 17β-HSD1:
Protein homogenate (0.1 μg/ml) was incubated in 20 mM KH2PO4 pH 7.4 with 30 nM estrone (including 800 000 cpm/ml of ^3H-estrone) and 1 mM NADPH for 30 min at RT, in the presence of the potential inhibitor at concentrations 1 μM or 0.1 μM. Inhibitor stock solutions were prepared in DMSO. Final concentration of DMSO was adjusted to 1% in all samples. The enzyme reaction was stopped by addition of 10% trichloroacetic acid (final concentration). Samples were centrifuged in a microtiter plate at 4000 rpm for 10 min. Supernatants were applied to reverse phase HPLC on a Waters Symmetry C18 column, equipped with a Waters Sentry Guard column. Isocratic HPLC runs were performed at RT at a flow rate of 1 ml/min in acetonitrile:water 48:52 as running solvent. Radioactivity was monitored in the eluate by a Packard Flow Scintillation Analyzer. Total radioactivity for estrone and estradiol were determined in each sample and percent conversion of estrone to estradiol was calculated according to the following formula:
(§1) [formula] Percent inhibition was calculated flowingly: % inhibition=100−% conversion

[3] = target: T2, recombinant human 17β-HSD2 (Homo sapiens, UniProt P37059); test: Inhibition of recombinant human 17β-HSD2; assay type: biochemical; details: inhibitor 1 μM; 50 nM estradiol, 1 mM NADH, 30 min at RT
T2 construct: made in house; host or cells: Sd9 (Sf9) insect cells, baculovirus (Bac to Bac Expression System)
T2 sequence (P37059 1-387): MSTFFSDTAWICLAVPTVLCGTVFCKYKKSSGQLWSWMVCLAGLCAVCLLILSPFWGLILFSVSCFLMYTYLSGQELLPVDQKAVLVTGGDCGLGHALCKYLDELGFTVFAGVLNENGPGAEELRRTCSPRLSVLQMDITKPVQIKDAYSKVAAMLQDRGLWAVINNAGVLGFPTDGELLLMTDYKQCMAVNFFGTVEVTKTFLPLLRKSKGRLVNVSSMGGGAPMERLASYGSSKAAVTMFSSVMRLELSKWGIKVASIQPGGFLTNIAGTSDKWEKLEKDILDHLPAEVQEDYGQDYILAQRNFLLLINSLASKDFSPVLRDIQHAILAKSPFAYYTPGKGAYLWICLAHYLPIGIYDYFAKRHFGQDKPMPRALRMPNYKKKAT
Protocol: 17β-HSD2 Production and Isolation:
Similarly to 17β-HSD1 the Recombinant baculovirus was generated by the “Bac to Bac Expression System” (Invitrogen). Recombinant bacmid was transfected to Sd9 insect cells using “Cellfectin Reagent” (Invitrogen). 60 h later cells were harvested and supernatant were fractionated by the following protocol: • cells were dissolved into 40 ml of A-buffer (40 mM TRIS, pH8.0, 20% glycerol, 20 μM NAD, 0.4 mM PMSF, 150 mM NaCl, 0.5% dodecyl-β-maltoside+protease inhibitor cocktail) • cells were sonicated • lysate was incubated on ice for 15 min • lysate was centrifuged 5000 rpm 15 min, +4° C. • centrifugation of the supernatant 180 000 g 30 min, +4° C. • pellet was dissolved into 8 ml of A-buffer • not resuspended material was removed by centrifugation 5000 rpm 15 min, +4° C. • the clear supernatant was divided into 100 μl aliquots and were stored frozen until determination of enzymatic activity.
The amount of 17β-HSD2 was analysed by immunoblotting and total protein concentration of each extract batch was determined.
Assay—Inhibition of Recombinant Human 17β-HSD2:
Protein homogenate (4 μg/ml) was incubated in 20 mM KH2PO4 pH 8.5 with 50 nM estradiol (including 800 000 cpm/ml of ^3H-estradiol) and 1 mM […] for 30 min at RT, in the presence of the potential inhibitor at concentrations 1 μM or 0.1 μM. Inhibitor stock solutions were prepared in DMSO. Final concentration of DMSO was adjusted to 1% in all samples. The enzyme reaction was stopped by addition of 10% trichloroacetic acid (final concentration). Samples were centrifuged in a microtiter plate at 4000 rpm for 10 min. Supernatants were applied to reverse phase HPLC on a Waters Symmetry C18 column, equipped with a Waters Sentry Guard column. […] Radioactivity was monitored in the eluate by a Packard Flow Scintillation Analyzer. Total radioactivity for estrone and estradiol were determined in each sample and percent conversion of estradiol to estrone was calculated according to the following formula:
as §1

[4] = Aqueous solubility test; assay type: physicochemical; details: for solubility: thermodynamic from solid
Protocol: The pH of the mixtures was held constant during the study. Excess amounts or a known amount of each component are added to 1 or 0.5 ml of buffer solution and the mixtures were stirred at rt for 48 hours or less, filtered (0.45 um Millipore) and analyzed by HPLC.

SMILES	In vitro metabolic stability, % remaining after 60 min [1] [%]	inhibition at 1 µM [2] [%]	inhibition at 1 µM [3] [%]	aqueous solubility (in words) ([4]; Table 5)	further results
Cc1cnc(NC(=O)CC[C@@H]2C/C(=N\O)[C@@]3(C)CCC4c5cc(C(C)(C)C)c(O)cc5CCC4C23)s1 (stereo partly drawn) [VIV-3, 3-{(13S,15R)-2-tert-Butyl-3-hydroxy-17-[(E)-hydroxyimino]-13-methyl-7,8,9,11,12,13,14,15,16,17-decahydro-6H-cyclopenta[a]phenanthren-15-yl}-N-(5-methylthiazol-2-yl)propanamide]	100	95	41		
CO/N=C1\C[C@@H](CCC(=O)Nc2ncc(C)s2)C2C3CCc4cc(OP(=O)([O-])[O-])c(C(C)(C)C)cc4C3CC[C@]12C.[Na+].[Na+] (stereo partly drawn) [Compound 1a]					aqueous solubility (in words) ([4]; Table 5, disodium salt): improved aqueous solubility; also recorded: significant aqueous solubility; Aqueous solubility, buffer at pH 7.4 ([4]; buffer at pH 7.4, rt): over 32 mg/ml
CO/N=C1\C[C@@H](CCC(=O)Nc2ncc(C)s2)C2C3CCc4cc(OP(=O)(O)O)c(C(C)(C)C)cc4C3CC[C@]12C (stereo partly drawn) [Compound 1]				improved aqueous solubility	
CO/N=C1\C[C@@H](CCC(=O)Nc2ncc(C)s2)C2C3CCc4cc(OCOP(=O)(O)O)c(C(C)(C)C)cc4C3CC[C@]12C (stereo partly drawn) [Compound 15, (((13S,15R)-2-(tert-butyl)-17[(E)-methoxyimino]-13-methyl-15-(3-((5-methylthiazol-2-yl)amino)-3-oxopropyl)-7,8,9,11,12,13,14,15,16,17-decahydro-6H-cyclopenta[a]phenanthren-3-yl)oxy)methyl dihydrogen phosphate]					aqueous solubility (in words) [4]: significant aqueous solubility
CO/N=C1\C[C@@H](CCC(=O)Nc2ncc(C)s2)C2C3CCc4cc(O)c(C(C)(C)C)cc4C3CC[C@]12C (stereo partly drawn) [VIV-1, 3-{(13S,15R)-2-tert-Butyl-3-hydroxy-17-[(E)-methoxyimino]-13-methyl-7,8,9,11,12,13,14,15,16,17-decahydro-6H-cyclopenta[a]phenanthren-15-yl}-N-(5-methylthiazol-2-yl) propanamide]	100	86	14		solubility ([4]; pH 7.4, aqueous buffer): < 0.52 µg/mL
CCO/N=C1\C[C@@H](CCC(=O)Nc2ncc(C)s2)C2C3CCc4cc(O)c(C(C)(C)C)cc4C3CC[C@]12C (stereo partly drawn) [VIV-4, 3-{(13S,15R)-2-tert-Butyl-17-[(E)-ethoxyimino]-3-hydroxyl-13-methyl-7,8,9,11,12,13,14,15,16,17-decahydro-6H-cyclopenta[a]phenanthren-15-yl}-N-(5-methylthiazol-2-yl)propanamide]		89	8		
CO/N=C1\C[C@@H](CCC(=O)Nc2ncc(C)s2)C2C3CCc4cc(OC(=O)CN(C)C)c(C(C)(C)C)cc4C3CC[C@]12C.Cl (stereo partly drawn) [Compound 4a, (13S,15R)-2-(tert-butyl)-17[(E)-methoxyimino]-13-methyl-15-(3-((5-methylthiazol-2-yl)amino)-3-oxopropyl)-7,8,9,11,12,13,14,15,16,17-decahydro-6H-cyclopenta[a]phenanthren-3-yl dimethylglycinate hydrochloride]				improved aqueous solubility	solubility ([4]; aqueous buffer, buffer at pH 7.4, rt, read-out: Aqueous solubility, buffer at pH 7.4): 7.99 µg/mL
CO/N=C1\C[C@@H](CCC(=O)Nc2ncc(C)s2)C2C3CCc4cc(OCOP(=O)(O)O)c(C(C)(C)C)cc4C3CC[C@]12C.[Na].[Na] (stereo partly drawn) [Compound 15a, (((13S,15R)-2-(tert-butyl)-17[(E)-methoxyimino]-13-methyl-15-(3-((5-methylthiazol-2-yl)amino)-3-oxopropyl)-7,8,9,11,12,13,14,15,16,17-decahydro-6H-cyclopenta[a]phenanthren-3-yl)oxy)methyl dihydrogen phosphate disodium salt]				improved aqueous solubility	solubility ([4]; buffer solution, aqueous buffer, buffer at pH 7.4, rt, read-out: Aqueous solubility, buffer at pH 7.4): > 30000 µg/mL
Cc1cnc(NC(=O)CC[C@@H]2CC(=O)[C@@]3(C)CCC4c5ccc(O)cc5CCC4C23)s1 (stereo partly drawn) [VII, reference compound]	13				
